Data as given in patent US20100120662A1, “Glucose uptake modulator and method for treating diabetes or diabetic complications” (POSTECH Foundation, priority 2005, published 2010).
Ends that are not written are not given here.

Key:
STZ-mouse = assay: Blood glucose in STZ mice after intravenous UCN and/or insulin; assay type: in vivo
Experimental: (§1) The inserted immunoblot data is about IR phosphorylation by UCN in skeletal muscle. Mice were injected (intravenously) with either vehicle (0.1% BSA in saline) or UCN (0.1-100 μM). Values are the mean±S.D. for four control and four UCN-treated mice. […] The inserted immunoblot data was about IR phosphorylation by treatment of UCN in skeletal muscle of STZ mouse. Mice were injected (intravenously) with vehicle (0.1% BSA in saline), UCN (0.1 μM) and/or insulin (1 nM). And plasma levels of glucose were measured during 45 min. Values are the mean±S.D. for six mice each group. *, P<0.05.
For preparing STZ-mouse, male Institute of Cancer Research (ICR) mice weighing 20-25 g, aged 8 weeks, were obtained from the Hyochang Science. STZ-induced diabetic mice were prepared by administering an intraperineal injection of STZ (Sigma Chemical, St. Louis, Mo.) (75 mg/kg) to male ICR mice after the animals were fasted for 1 day. And the next day had one more injection of STZ. Mice with plasma glucose concentrations ≧280 mg/dl were considered to have type 1 diabetes. All tests were carried out 3 days after the injection of STZ.

insulin receptor (IR) [1] = assay: IR autophosphorylation in hIRcB cells; assay type: cell-based, human
Experimental: FIG. 12A shown a comparison of insulin sensitizing effect among CRF family which was obtained by incubating cells with 1 μM CRF family and/or 2 nM insulin or with medium alone for 1 min. […] FIG. 12B was obtained by incubating cells with 2 nM insulin and variant dose of UCN (from 2 nM to 1 μM) for 1 min. FIG. 12C was obtained by incubating cells 100 nM UCN and variant dose of insulin for 1 min. Phosphorlyation of IR was assessed by western blotting with anti-pTyr antibodies. FIG. 13D was obtained by incubating cells with 100 nM UCN and/or 10 nM insulin for 0, 2, 10, 30, and 60 min, and then assessing the phosphorlyation of IR by western blotting with anti-pIR antibodies. Quantization of IR autophosphorylation was measured with image gauge software (Fuji film). The values are the mean±S.E. for three experiments. *, P<0.05
hIRcB cells were maintained in DMEM, supplemented with 10% (v/v) FBS. The cells were grown at 37° C. in a humidified atmosphere of 5% CO2 and 95% air.
After treatment of ligands as indicated time and dose, the cells were washed with cold PBS and lysed with lysis buffer (50 mM HEPES pH 7.5, 150 mM NaCl, 1%
Triton X-100, 1 mM EDTA, 10% glycerol) containing protease inhibitors (0.5 mM PMSF, 1 μg/ml leupeptin and 5 μg/ml aprotinin) and phosphatase inhibitors (30 mM NaF, 1 mM Na3VO4 and 30 mM Na4O7P2). The cell lysates were incubated for 1 hr at 4° C. After centrifugation (14,000×g for 15 min), equal amounts of soluble extract were incubated, for 4 hrs, with 5 μg of anti-IR antibody and 30 μl of resin volume of immobilized protein A. For gel electrophoresis, the precipitates were dissolved in Laemmli sample buffer. The sample was separated by SDS-PAGE and transferred to a nitrocellulose membrane (Schleicher and Schuell, BA85). Blocking was performed with TTBS buffer (10 mM Tris/HCl, pH 7.5, 150 mM NaCl, and 0.05% Tween 20) containing 5% skimmed milk powder. The membrane was probed with primary for 3 hrs at room temperature. Subsequently the immunoblot was washed and incubated with horseradish peroxidase-linked secondary antibody for 1 hr at room temperature, rinsed four times in TTBS buffer, and developed with horseradish peroxidase-dependent chemiluminescence reagents (Amersham International, United Kingdom).

IR, IRS and Akt = assay: Phosphorylation of IR, IRS and Akt in C2C12 myotubules; assay type: cell-based
Experimental: (§2) UCN enhanced insulin-induced glucose uptake and phosphorylation of IR, IRS and Akt. Myotubules were incubated with 2 nM UCN and/or variant insulin dose (0-50 nm) for 1 min (Inserted immunoblot data). Phosphorylation of IRS and Akt was assessed by western blot analysis with anti-pIRS and anti-pAkt antibodies. Glucose uptake was determined as below.
(§3) C2C12 cells were maintained in DMEM, supplemented with 10% (v/v) FBS. The cells were grown at 37° C. in a humidified atmosphere of 5% CO2 and 95% air. For the differentiation of C2C12 cells, growing media was changed to DMEM, supplemented with 2% (v/v) ES and cultured for 7 days.
Immunoprecipitation and immunoblot was performed according to the method of EXAMPLE 8.

insulin receptor (IR) [2] = assay: IR phosphorylation in mouse skeletal muscle; assay type: in vivo; details: soleus muscle, 15 min after i.v. injection
Experimental: After fasting overnight, mice were injected iv with agonist. After 15 min, mice were killed by soleus muscles were rapidly excised and were immediately frozen in liquid nitrogen. Lysates were prepared by homogenizing the tissues in lysis buffer (50 mM HEPES pH 7.5, 150 mM NaCl, 1% Triton X-100, 1 mM EDTA, 10% glycerol) containing protease inhibitors (0.5 mM PMSF, 1 μg/ml leupeptin and 5 μg/ml aprotinin) and phosphatase inhibitors (30 mM NaF, 1 mM Na3VO4 and 30 mM Na4O7P2). Debris was removed by centrifugation at 14,000 rpm for 10 min at 4° C. Immunoprecipitation and Western blots were performed as previously described.

ICR mice = assay: Blood glucose in normal ICR mice after intravenous UCN; assay type: in vivo, mouse; details: i.v.
Experimental: as §1
For prepare the normal test animal, male Institute of Cancer Research (ICR) mice weighing 20-25 g, aged 8 weeks, were obtained from the Hyochang Science were housed four to cage in a temperature- and light-controlled room (20-22° C.; 12-hrs light, 12-hrs dark cycle; lights on at 07:00 hr) and were provided with regular diet chow and water ad libitum. The laboratory procedures used conformed to the guidelines of the Korea Government Guide for the Care of Use of Laboratory Animals. In the in vivo study, after fasting overnight, mice were injected to intravenous vein with 0.1% BSA saline or UCN, then plasma glucose was measured on a time by glucose analyzer (model AGM-2100, allmedicus Inc., anyang, Korea)

C2C12 myotubules = assay: Glucose uptake in C2C12 myotubules (UCN); assay type: cell-based; details: in the presence of UCN
Experimental: as §2, §3
After differentiation, cells were washed and incubated during 3 hrs with 2 ml Krebs-Ringer phosphate (KRP) containing 130 mM NaCl, 5 mM KCl, 1.3 mM CaCl2.2H2O, 1.3 mM MgSO4.7H2O, and 10 mM Na2HPO4.7H2O, pH 7.4. To determine the effect of UCN on glucose uptake, 10 min incubation in 1 ml of KRP at indicated conditions was carried out. The reaction was performed by adding a mixture of [^14C] 2-DG (1 μCi/ml) and non-radioactive 2-DG (final concentration of 20 mM) for 10 min. […] Cell-associated radioactivity was determined by lysing the cells in 1 N NaOH and followed by scintillation counting. Non-specific uptake was measured by incubating the cells with cytochalasin B (20 μM/ml). […]

## urocortin (DNPSLSIDLTFHLLRTLLELARTQSQRERAEQNRIIFDSV; ends and bridges not checked; UniProt P55089 83-122, looked up) [UCN, a 40 amino acid peptide as a member of the corticotrophin release factor (CRF) family]
STZ-mouse; UCN (0.1 μM) i.v., 45 min
  change of blood glucose level, UCN alone: no effect on the change of blood glucose level
STZ-mouse; UCN co-injected with inactive concentration of insulin (1 nM)
  blood glucose level, UCN co-injected with insulin: significantly decreased
Insulin receptor (IR) [1]; 1 μM CRF family peptide with 2 nM insulin, 1 min, hIRcB cells
  insulin-mediated IR phosphorylation: potentate insulin-mediated IR phosphorylation
Insulin receptor (IR) [1]; UCN 2 nM to 1 μM with 2 nM insulin, 100 nM UCN with 10 nM insulin 0-60 min
  dose and time dependence of insulin sensitizing effect: increased in dose (12B,12C) and time (12D) dependent manner
Insulin receptor (IR) [1]; hIRcB cells
  potency in potentiating insulin-mediated IR phosphorylation compared with CRF: more potent
Insulin receptor (IR) [1]; without insulin, hIRcB cells
  IR phosphorylation by peptide alone: no effect on IR phosphorylation
IR, IRS and Akt; 2 nM UCN and/or insulin 0-50 nm, 1 min
  insulin-induced phosphorylation of IR, IRS and Akt: enhanced
IR, IRS and Akt; in the presence of UCN, C2C12 myotubules
  insulin-induced phosphorylation of IR: enhanced
Insulin receptor (IR) [2]
  insulin-induced IR phosphorylation in mouse skeletal muscle: significantly sensitized insulin-induced IR phosphorylation
ICR mice; 0.1 μM UCN
  blood glucose level, UCN alone: down-regulated the blood glucose level
ICR mice; from 100 pM up
  blood glucose level, UCN alone: enhanced blood glucose level
C2C12 myotubules
  insulin-stimulated glucose uptake: significantly increased
